In one test the test system is guinea pig ileum. Also on record: method as in Guerrini et al., 1998. The note with it: ref Guerrini et al., 1998; cited from earlier work.
The target of test [1] is T1, human kappa opioid receptor (Homo sapiens, UniProt P41145). Description: biochemical. The class given is biochemical. Also on record: 13-mer linker peptide […]; expressed in transfected cells; enriched plasma membranes used.
For a further test, the system named is rabbit jejunum. Also on record: method as in Guerrini et al., 1998. Particulars: ref Guerrini et al., 1998; cited from earlier work.
The test system of test [2] is kappa opioid receptor. Also on record: method as in Guerrini et al., 1998. The note with it: ref Guerrini et al., 1998; cited from earlier work.
Test [3] has as its target T1, human kappa opioid receptor. The test is described as follows: Calcium mobilization in CHO cells co-expressing the kappa receptor and Gαqi5. Type of test: cell-based. Also on record: expressed in transfected cells. On the technique in general: Calcium assays in cells follow changes in intracellular calcium, usually with a dye or a luminescent sensor.
For test [4] the target is unchanged. Description: BRET kappa-β-arrestin 2 interaction, SH-SY5Y whole cells. Type of test: cell-based. Also on record: 13-mer linker peptide […]; expressed in transfected cells; enriched plasma membranes used. In general terms: BRET reads energy transfer from a luciferase to a nearby fluorophore.
Test [5] shares this target. Description: Dynamic mass redistribution (DMR) label-free assay in CHO cells. Also on record: expressed in transfected cells. The class given is cell-based. The method, then:
DMR experiments were conducted as previously described ([Malfacini et al., 2018]). Chinese Hamster Ovary (CHO) cells stably expressing the human kappa receptor were kindly provided by L Toll (Torrey Pines Institute for Molecular Studies, Port St. Lucie, United States). Cells were cultured in Dulbecco’s Modified Eagle Medium: Nutrient Mixture F-12 (DMEM/F12) supplemented with 10% (v/v) Fetal Calf Serum (FCS), 100 U/ml penicillin, 100 μg/ml streptomycin, 2 mM L-glutamine, 15 mM HEPES. The medium was supplemented with 400 μg/ml G418 to maintain expression. Cells were seeded at a density of 45,000 cells/well in 120 μL into fibronectin-coated EnspireTM-LC 96-wells plates and cultured for 20 h to form a confluent monolayer. On the day of the experiment, cells were washed twice and maintained with assay buffer: HBSS with 20 mM HEPES, 0.01% BSA fraction V; for 90 min before the experiment. DMR was monitored in real-time with a temporal resolution of 44 s throughout the assay. Experiments were performed at 37°C, using an EnSight Multimode Plate Reader (PerkinElmer). A 5 min baseline was first established, followed by adding compounds manually in a volume of 40 μL and recording compound-triggered DMR signal for 60 min. In antagonism experiments, ligands tested as antagonists were added 30 min before agonist administration. Maximum picometers (pm) modification (peak) were used to determine agonist response after baseline normalization.
The pharmacological terminology is consistent with the International Union of Basic and Clinical Pharmacology (IUPHAR) recommendations ([Neubig et al., 2003]). Concentration-response curves to agonists were fitted to the four-parameter logistic nonlinear regression model as follows: Effect=Basal+ Emax−Basal/1+10^ (LogEC50−Log[ligand]) × HillSlope
If unsurmountable antagonist behavior was detected, the pKB value was derived as follows: a double-reciprocal plot of equi-effective concentrations of agonist (A) in the absence (1/A) and presence (1/A’) of the antagonist (B) was constructed and pKB was derived from the equation pKB = log {(slope-1)/[B]} ([Kenakin, 2009]).

Test [6] deals with kappa opioid receptor. Also on record: method as in Zhu et al., 1997; Birch et al., 1987. Particulars: ref Zhu et al., 1997; Birch et al., 1987; cited from earlier work.
For test [7], the system named is kappa opioid receptor. The note with it: ref Simonin et al., 1995; cited from earlier work.

The values below come from article PMC9068900, “Pharmacology of Kappa Opioid Receptors: Novel Assays and Ligands” (Frontiers in Pharmacology, 2022).

Values joined by “and” are separate entries in the source; they are usually repeats but may differ in a detail not shown here. Identical values can stand only once. Like-named read-outs stand apart in the source and are kept apart here. Non-standard residues stand in square brackets, D forms with d. Residues, ends and D or L forms follow the SMILES beside them. Dmt = Cc1cc(O)cc(C)c1C[C@H](N)C(=O)O; Tic = O=C(O)[C@@H]1Cc2ccccc2CN1

T1 sequence (P41145 whole entry): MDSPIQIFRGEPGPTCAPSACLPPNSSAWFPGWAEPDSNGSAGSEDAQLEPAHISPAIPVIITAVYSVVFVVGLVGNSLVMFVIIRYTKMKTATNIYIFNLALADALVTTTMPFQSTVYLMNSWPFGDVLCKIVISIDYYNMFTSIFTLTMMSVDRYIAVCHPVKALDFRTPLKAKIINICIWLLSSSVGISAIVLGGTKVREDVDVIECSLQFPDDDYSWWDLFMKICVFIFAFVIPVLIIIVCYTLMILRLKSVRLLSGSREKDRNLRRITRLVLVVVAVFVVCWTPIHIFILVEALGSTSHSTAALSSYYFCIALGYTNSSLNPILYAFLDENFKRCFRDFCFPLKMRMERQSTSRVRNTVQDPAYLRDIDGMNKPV

Consider `CC[C@H](C)[C@H](NC(=O)[C@H](CCCNC(=N)N)NC(=O)[C@H](CCCNC(=N)N)NC(=O)[C@H](CC(C)C)NC(=O)[C@H](Cc1ccccc1)NC(=O)CNC(=O)[C@@H]1Cc2ccccc2CN1C(=O)[C@@H](N)Cc1c(C)cc(O)cc1C)C(=O)N[C@@H](CCCNC(=N)N)C(=O)N1CCC[C@H]1C(=O)N[C@@H](CCCCN)C(N)=O` [[Dmt^1,Tic^2], [Dmt^1,Tic^2]Dyn(1-11)-NH2] (H-[Dmt][Tic]GFLRRIRPK-NH2; N-terminus assumed), for which the Antagonist potency in the test with guinea pig ileum is 90 nM. In addition, in test [1], the “BRET G Protein pA2 (CL95%)” value was 7.5; the “BRET G Protein pEC50 (CL95%)” value was 6.95 (6.14–7.75); the “BRET G Protein α” value is 0.35; the “Emax ± sem” value was 0.30 ± 0.02 and 0.35 ± 0.06. In test [1], the “pEC50 (CL95%)” value is reported as 7.09. Also, the “BRET G Protein pA2 (CL95%)” value in test [1] (sh-sy5y cell membranes) is reported as 7.5 (5.35–9.65). For the same compound, the Antagonist potency in the test with rabbit jejunum is 8 nM. In the test with kappa opioid receptor [2], the “Affinity at the mu opioid receptor relative to kappa (in words)” value is recorded as “equal affinity”, the Affinity values was 3.3—4.3 nM and the “Higher affinity at the delta opioid receptor” value is 10 fold. Also, in test [3], the “Calcium Mobilization pA2 (CL95%)” value is recorded as 6.6, the “Calcium Mobilization pEC50 (CL95%)” value is on record as “∼6.9”, the “Calcium Mobilization α (intrinsic activity: maximal effect divided by that of Dyn A)” value is reported as 0.15 and the “Increase of calcium levels” value is reported as 50 % over the baseline. The “Calcium Mobilization pA2 (CL95%)” value in test [3] (cho cells) is 6.6 (6.16–7.14). For the same compound, in test [4], the “BRET β-Arrestin 2 pA2 (CL95%)” value was determined as 7.3, the “BRET β-Arrestin 2 pEC50 (CL95%)” value was “inactive”, the “BRET β-Arrestin 2 α” value was “inactive” and the “Residual agonist activity (in words)” value was “did not show any residual agonist activity”. Moreover, the “BRET β-Arrestin 2 pA2 (CL95%)” value in [4] (sh-sy5y cells) is 7.3 (6.5–8.1). In addition, in test [5], the “DMR pA2 (CL95%)” value was found to be 7.7, the “DMR pEC50 (CL95%)” value is listed as 7.11 (5.61–8.61), the “DMR α” value was 0.47 and the “Effect on DMR baseline (in words)” value is “slightly stimulated the DMR response only at micromolar concentrations”. In addition, the “DMR pA2 (CL95%)” value in test [5] (cho cells) is on record as 7.7 (7.11–8.29).
For `Oc1ccc2c3c1O[C@H]1c4[nH]c5c(c4C[C@@]4(O)[C@@H](C2)N(CC2CC2)CC[C@]314)C[C@@]1(O)[C@H]2Cc3ccc(O)c4c3[C@@]1(CCN2CC1CC1)[C@H]5O4` [Nor-BNI, Nor-Binaltorphimine], in test [1] (5 min, fraction of Dyn A maximal effect), the “Emax ± sem” value is “inactive”. Further, the “pEC50 (CL95%)” value in test [1] (5 min after compound addition) is “inactive”. In the test with kappa opioid receptor [6], the Potency is 0.1 nM. For the same compound, in test [3] (CHO cells, human kappa + Gαqi5), the “Calcium Mobilization pEC50 (CL95%)” value was “inactive” and the “Calcium Mobilization α (intrinsic activity: maximal effect divided by that of Dyn A)” value was “inactive”. Further, the “Stimulation of calcium flux (in words)” value in [3] (tested as agonist) was “completely inactive”. In addition, the Affinity result in the test with kappa opioid receptor [7] is given as “approximately 1 nM”. Besides, the “BRET β-Arrestin 2 pEC50 (CL95%)” value in test [4] (SH-SY5Y cells, kappa-RLuc/β-arrestin 2-RGFP) was “inactive”. In test [4] (relative to Dyn A), the “BRET β-Arrestin 2 α” value is “inactive”. In [5] (CHO cells, human kappa), the “DMR pEC50 (CL95%)” value was “inactive”. Moreover, in test [5] (relative to Dyn A), the “DMR α” value was “inactive”. Also, in test [5] (tested as agonist), the “Effect on DMR baseline (in words)” value was “did not modify DMR baseline”.
